Assay results published in the NIST ThermoML archive (doi:10.1007/s10765-012-1233-x).

Details: Liquid; for viscosity: Falling or rolling sphere viscometry; for mass density: Vibrating tube method; for thermal conductivity: Hot wire method

CCCCCCn1cc[n+](C)c1.F[B-](F)(F)F [1-hexyl-3-methylimidazolium tetrafluoroborate]
Details | mass density [kg/m3] | thermal conductivity [W/m/K] | viscosity [mPa·s]
293.15 K, 100 kPa | 1148.6 | – | 286
293.15 K, 5000 kPa | 1151.2 | – | 302
293.15 K, 10000 kPa | 1153.5 | – | 318
293.15 K, 15000 kPa | 1155.8 | – | 345
293.15 K, 20000 kPa | 1158.2 | – | 372
294.2 K, 100 kPa | – | 0.166 | –
294.2 K, 10000 kPa | – | 0.168 | –
294.2 K, 20000 kPa | – | 0.17 | –
313.15 K, 100 kPa | 1134.1 | – | 92.9
313.15 K, 5000 kPa | 1136.7 | – | 98.7
313.15 K, 10000 kPa | 1139.4 | – | 104
313.15 K, 15000 kPa | 1141.8 | – | 109
313.15 K, 20000 kPa | 1144.2 | – | 115
314.3 K, 100 kPa | – | 0.165 | –
314.3 K, 10000 kPa | – | 0.168 | –
314.3 K, 20000 kPa | – | 0.169 | –
333.15 K, 100 kPa | 1120.5 | – | 40.4
333.15 K, 5000 kPa | 1123.1 | – | 42.5
333.15 K, 10000 kPa | 1125.8 | – | 44.4
333.15 K, 15000 kPa | 1128.5 | – | 45.5
333.15 K, 20000 kPa | 1131.1 | – | 48.2
334.4 K, 100 kPa | – | 0.164 | –
334.4 K, 10000 kPa | – | 0.167 | –
334.4 K, 20000 kPa | – | 0.169 | –
353.15 K, 100 kPa | 1107.1 | – | 21.2
353.15 K, 5000 kPa | 1109.9 | – | 22.3
353.15 K, 10000 kPa | 1112.7 | – | 22.7
353.15 K, 15000 kPa | 1115.5 | – | 23.9
353.15 K, 20000 kPa | 1118.3 | – | 24.3

CCCCCCCC[n+]1ccn(C)c1.F[B-](F)(F)F [1-methyl-3-octylimidazolium tetrafluoroborate]
Details | mass density [kg/m3] | thermal conductivity [W/m/K] | viscosity [mPa·s]
293.15 K, 100 kPa | 1107.1 | – | 472
293.15 K, 5000 kPa | 1109.7 | – | 510
293.15 K, 10000 kPa | 1112.2 | – | 537
293.15 K, 15000 kPa | 1114.6 | – | 572
293.15 K, 20000 kPa | 1117 | – | 649
294.2 K, 100 kPa | – | 0.164 | –
294.2 K, 10000 kPa | – | 0.165 | –
294.2 K, 20000 kPa | – | 0.167 | –
313.15 K, 100 kPa | 1093.5 | – | 146
313.15 K, 5000 kPa | 1096.1 | – | 157
313.15 K, 10000 kPa | 1098.8 | – | 166
313.15 K, 15000 kPa | 1101.4 | – | 175
313.15 K, 20000 kPa | 1103.9 | – | 188
314.3 K, 100 kPa | – | 0.163 | –
314.3 K, 10000 kPa | – | 0.164 | –
314.3 K, 20000 kPa | – | 0.166 | –
333.15 K, 100 kPa | 1079.8 | – | 58
333.15 K, 5000 kPa | 1082.6 | – | 60.6
333.15 K, 10000 kPa | 1085.4 | – | 63.6
333.15 K, 15000 kPa | 1088.1 | – | 66.4
333.15 K, 20000 kPa | 1090.8 | – | 69.8
334.4 K, 100 kPa | – | 0.16 | –
334.4 K, 10000 kPa | – | 0.162 | –
334.4 K, 20000 kPa | – | 0.164 | –
353.15 K, 100 kPa | 1066.8 | – | 28.1
353.15 K, 5000 kPa | 1069.7 | – | 29.8
353.15 K, 10000 kPa | 1072.7 | – | 30.8
353.15 K, 15000 kPa | 1075.5 | – | 32.1
353.15 K, 20000 kPa | 1078.3 | – | 33.4
